Laboratory results from US20250320193A1, “OXOISOINDOLINYL SUBSTITUTED PIPERIDINEDIONE DERIVATIVE AND USE THEREOF” (GLUETACS THERAPEUTICS (SHANGHAI) CO., LTD., priority 2022, published 2025).

Experiments:
[1] = biological target: human Cereblon WT GST-tagged protein (Homo sapiens (Human), UniProt Q96SW2); assay: CRBN-binding affinity, HTRF (CEREBLON BINDING kit, CISBIO); conditions: HTRF inhibitory activity
How it was run: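 HTRF competition format: test compound displaces Thalidomide-Red from GST-tagged human Cereblon WT, detected with a Eu-labelled anti-GST antibody. Percent CRBN binding inhibition was derived from the 620 nm signal, normalized to solvent-control and protein-free blank wells.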

IKZF1 = IKZF1 (Homo sapiens (Human), UniProt Q13422+Q96SW2); assay: Western blot, substrate protein expression in hPBMC: IKZF1; format: cell-based; conditions: hPBMC, compound 500 nM, 24 hours, Western blot
How it was run: (§1)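 hPBMC, 1×10^6 cells/mL, 24 h compound exposure; RIPA lysis, BCA protein assay, SDS-PAGE, NC membrane immunoblot. Densitometry vs internal control → % protein remaining; degradation % = 100% − remaining; DC50 = conc. at 50% of DMSO band signal.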

IKZF3 = IKZF3 (Homo sapiens (Human), UniProt Q96SW2+Q9UKT9); assay: Western blot, substrate protein expression in hPBMC: IKZF3; format: cell-based; conditions: hPBMC, compound 500 nM, 24 hours, Western blot
How it was run: as §1

GSPT1 = GSPT1 (Homo sapiens (Human), UniProt P15170+Q96SW2); assay: Western blot, substrate protein expression in hPBMC: GSPT1; format: cell-based; conditions: hPBMC, compound 500 nM, 24 hours, Western blot
How it was run: as §1

IKZF3, sequence (Q9UKT9 whole entry): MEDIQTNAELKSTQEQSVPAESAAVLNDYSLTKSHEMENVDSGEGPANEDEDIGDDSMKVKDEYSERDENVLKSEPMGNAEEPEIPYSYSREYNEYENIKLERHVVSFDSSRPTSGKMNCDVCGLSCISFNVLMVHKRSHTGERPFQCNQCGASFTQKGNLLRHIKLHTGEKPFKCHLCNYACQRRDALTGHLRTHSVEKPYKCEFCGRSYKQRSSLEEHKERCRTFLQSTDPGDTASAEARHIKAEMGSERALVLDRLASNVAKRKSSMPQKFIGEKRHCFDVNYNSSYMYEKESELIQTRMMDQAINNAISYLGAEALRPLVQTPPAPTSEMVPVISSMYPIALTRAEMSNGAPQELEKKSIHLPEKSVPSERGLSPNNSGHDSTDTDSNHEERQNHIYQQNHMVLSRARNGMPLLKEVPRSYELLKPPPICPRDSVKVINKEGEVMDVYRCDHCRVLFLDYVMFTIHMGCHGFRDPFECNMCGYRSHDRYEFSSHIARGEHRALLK
IKZF3, sequence (Q96SW2 whole entry): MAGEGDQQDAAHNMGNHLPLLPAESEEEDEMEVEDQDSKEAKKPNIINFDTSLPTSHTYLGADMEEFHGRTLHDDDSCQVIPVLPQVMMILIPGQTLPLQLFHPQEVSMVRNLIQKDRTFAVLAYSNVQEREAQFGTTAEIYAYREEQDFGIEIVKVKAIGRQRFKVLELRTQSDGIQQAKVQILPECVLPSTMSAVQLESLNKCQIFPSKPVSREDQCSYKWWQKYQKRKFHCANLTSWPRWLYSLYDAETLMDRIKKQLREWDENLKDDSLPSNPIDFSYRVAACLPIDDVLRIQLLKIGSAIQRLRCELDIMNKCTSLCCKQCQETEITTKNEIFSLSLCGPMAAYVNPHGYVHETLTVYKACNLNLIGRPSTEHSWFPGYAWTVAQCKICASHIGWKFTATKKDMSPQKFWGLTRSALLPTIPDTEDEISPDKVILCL
IKZF3, sequence (Q16531 whole entry partner): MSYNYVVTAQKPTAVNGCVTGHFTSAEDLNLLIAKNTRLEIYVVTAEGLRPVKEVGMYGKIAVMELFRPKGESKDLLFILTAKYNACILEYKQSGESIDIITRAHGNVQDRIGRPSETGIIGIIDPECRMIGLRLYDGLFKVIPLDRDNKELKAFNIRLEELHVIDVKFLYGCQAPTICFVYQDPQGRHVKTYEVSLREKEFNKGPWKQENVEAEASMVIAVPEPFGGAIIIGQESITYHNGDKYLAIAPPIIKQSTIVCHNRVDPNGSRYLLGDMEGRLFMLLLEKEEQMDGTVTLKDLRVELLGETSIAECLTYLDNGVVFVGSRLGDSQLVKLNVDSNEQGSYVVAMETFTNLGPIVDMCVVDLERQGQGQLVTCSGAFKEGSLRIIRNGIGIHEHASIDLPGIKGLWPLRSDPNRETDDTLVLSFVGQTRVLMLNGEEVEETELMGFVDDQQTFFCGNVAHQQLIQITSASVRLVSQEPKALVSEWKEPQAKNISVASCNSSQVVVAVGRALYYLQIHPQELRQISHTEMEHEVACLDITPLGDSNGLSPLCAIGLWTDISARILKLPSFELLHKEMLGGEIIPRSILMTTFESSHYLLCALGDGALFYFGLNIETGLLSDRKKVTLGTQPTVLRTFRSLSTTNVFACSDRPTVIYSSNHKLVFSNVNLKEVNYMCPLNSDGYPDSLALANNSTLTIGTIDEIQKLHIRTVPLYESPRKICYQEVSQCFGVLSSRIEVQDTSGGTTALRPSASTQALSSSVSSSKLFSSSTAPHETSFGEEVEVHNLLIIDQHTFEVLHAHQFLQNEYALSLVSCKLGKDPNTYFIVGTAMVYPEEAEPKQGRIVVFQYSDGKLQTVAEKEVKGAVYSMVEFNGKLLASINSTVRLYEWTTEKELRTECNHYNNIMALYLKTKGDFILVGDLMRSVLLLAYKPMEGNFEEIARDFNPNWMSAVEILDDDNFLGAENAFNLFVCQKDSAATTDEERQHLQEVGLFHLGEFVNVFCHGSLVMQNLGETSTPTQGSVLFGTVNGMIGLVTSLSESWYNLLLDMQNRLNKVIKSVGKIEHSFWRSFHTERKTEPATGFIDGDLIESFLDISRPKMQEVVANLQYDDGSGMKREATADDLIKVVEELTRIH
GSPT1, sequence (P15170 whole entry): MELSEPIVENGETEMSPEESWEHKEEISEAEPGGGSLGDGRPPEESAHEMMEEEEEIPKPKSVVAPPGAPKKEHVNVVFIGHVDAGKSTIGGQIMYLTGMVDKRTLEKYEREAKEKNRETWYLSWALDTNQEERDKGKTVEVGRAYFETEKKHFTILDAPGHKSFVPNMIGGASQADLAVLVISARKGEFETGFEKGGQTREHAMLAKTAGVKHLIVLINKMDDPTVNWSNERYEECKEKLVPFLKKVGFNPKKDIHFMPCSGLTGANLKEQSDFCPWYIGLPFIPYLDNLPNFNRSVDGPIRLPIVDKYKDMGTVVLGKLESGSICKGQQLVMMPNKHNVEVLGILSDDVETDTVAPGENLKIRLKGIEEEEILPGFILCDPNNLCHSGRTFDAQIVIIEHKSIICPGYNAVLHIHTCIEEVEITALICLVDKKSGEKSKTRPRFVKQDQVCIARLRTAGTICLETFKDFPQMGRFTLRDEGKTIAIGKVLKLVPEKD
GSPT1, sequence (Q96SW2 whole entry): as the sequence (Q96SW2 whole entry) above
GSPT1, sequence (Q16531 whole entry partner): as the sequence (Q16531 whole entry partner) above
IKZF1, sequence (Q13422 whole entry): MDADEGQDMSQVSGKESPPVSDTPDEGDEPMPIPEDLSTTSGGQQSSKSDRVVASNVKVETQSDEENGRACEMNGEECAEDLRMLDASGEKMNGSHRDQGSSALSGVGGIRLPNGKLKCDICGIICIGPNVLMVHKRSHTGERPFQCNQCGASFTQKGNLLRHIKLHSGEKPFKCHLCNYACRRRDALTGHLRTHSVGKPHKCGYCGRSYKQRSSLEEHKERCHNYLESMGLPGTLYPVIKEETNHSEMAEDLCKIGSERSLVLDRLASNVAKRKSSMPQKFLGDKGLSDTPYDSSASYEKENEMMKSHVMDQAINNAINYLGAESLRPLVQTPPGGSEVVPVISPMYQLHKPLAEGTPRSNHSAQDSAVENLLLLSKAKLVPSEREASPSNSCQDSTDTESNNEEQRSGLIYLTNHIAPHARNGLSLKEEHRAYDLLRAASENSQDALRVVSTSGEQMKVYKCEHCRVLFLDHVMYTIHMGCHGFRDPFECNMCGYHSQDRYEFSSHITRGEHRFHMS
IKZF1, sequence (Q96SW2 whole entry): as the sequence (Q96SW2 whole entry) above
IKZF1, sequence (Q16531 whole entry partner): as the sequence (Q16531 whole entry partner) above
human Cereblon WT GST-tagged protein, sequence (Q96SW2 whole entry): as the sequence (Q96SW2 whole entry) above

| SMILES | IC50 [1] [nM] | substrate protein remaining % IKZF1 (IKZF1) | substrate protein remaining % IKZF3 (IKZF3) | substrate protein remaining % GSPT1 (GSPT1) |
| --- | --- | --- | --- | --- |
| O=C1CCC(N2Cc3c(C(=O)N4CCN(C(c5ccc(F)cc5)c5ccc(F)cc5)CC4)cccc3C2=O)C(=O)N1 (centres unmarked) [GT-05930, 3-(4-(4-(bis(4-fluorophenyl)methyl)piperazine-1-carbonyl)-1-oxoisoindolin-2-yl)piperidine-2,6-dione] | < 500 | B (B represents substrate protein remaining % > 50%) | B (B represents substrate protein remaining % > 50%) | A (A represents 0% ≤ substrate protein remaining % ≤ 50%) |
| CC1(C)CN(Cc2cc3c(cc2F)C(=O)N(C2CCC(=O)NC2=O)C3)CCN1C(c1ccccc1)c1ccccc1 (centres unmarked) [GT-05960, 3-(5-((4-benzhydryl-3,3-dimethylpiperazin-1-yl)methyl)-6-fluoro-1-oxoisoindolin-2-yl)piperidine-2,6-dione] | 1000 to 1900 | B (B represents substrate protein remaining % > 50%) | A (A represents 0% ≤ substrate protein remaining % ≤ 50%) | A (A represents 0% ≤ substrate protein remaining % ≤ 50%) |
| O=C1CCC(N2Cc3cc(CN4CC5CCC4CN5C(c4ccccc4)c4ccccc4)c(F)cc3C2=O)C(=O)N1 (centres unmarked) [GT-05963, 3-(5-((5-benzhydryl-2,5-diazabicyclo[2.2.2]octan-2-yl)methyl)-6-fluoro-1-oxoisoindolin-2-yl)piperidine-2,6-dione] | 500 to 1000 | B (B represents substrate protein remaining % > 50%) | B (B represents substrate protein remaining % > 50%) | A (A represents 0% ≤ substrate protein remaining % ≤ 50%) |
| CC1CN(Cc2ccc3c(c2F)CN(C2CCC(=O)NC2=O)C3=O)CC(C)N1C(c1ccccc1)c1ccccc1 (centres unmarked) [GT-05965, 3-(5-((4-benzhydryl-3,5-dimethylpiperazin-1-yl)methyl)-4-fluoro-1-oxoisoindolin-2-yl)piperidine-2,6-dione] | 1000 to 1900 | A (A represents 0% ≤ substrate protein remaining % ≤ 50%) | A (A represents 0% ≤ substrate protein remaining % ≤ 50%) | A (A represents 0% ≤ substrate protein remaining % ≤ 50%) |
| CC1CN(Cc2cc3c(cc2F)C(=O)N(C2CCC(=O)NC2=O)C3)CC(C)N1C(c1ccccc1)c1ccccc1 (centres unmarked) [GT-05966, 3-(5-((4-benzhydryl-3,5-dimethylpiperazin-1-yl)methyl)-6-fluoro-1-oxoisoindolin-2-yl)piperidine-2,6-dione] | 1000 to 1900 | B (B represents substrate protein remaining % > 50%) | B (B represents substrate protein remaining % > 50%) | A (A represents 0% ≤ substrate protein remaining % ≤ 50%) |
| CC1CN(Cc2cc(F)c3c(c2)CN(C2CCC(=O)NC2=O)C3=O)CC(C)N1C(c1ccccc1)c1ccccc1 (centres unmarked) [GT-05967, 3-(5-((4-benzhydryl-3,5-dimethylpiperazin-1-yl)methyl)-7-fluoro-1-oxoisoindolin-2-yl)piperidine-2,6-dione] | 1000 to 1900 | B (B represents substrate protein remaining % > 50%) | A (A represents 0% ≤ substrate protein remaining % ≤ 50%) | A (A represents 0% ≤ substrate protein remaining % ≤ 50%) |
| O=C1CCC(N2Cc3c(ccc(CN4CCC5(CCN(C(c6ccccc6)c6ccccc6)CC5)C4)c3F)C2=O)C(=O)N1 (centres unmarked) [GT-05970, 3-(5-((8-benzhydryl-2,8-diazaspiro[4.5]decan-2-yl)methyl)-4-fluoro-1-oxoisoindolin-2-yl)piperidine-2,6-dione] | 1000 to 1900 | B (B represents substrate protein remaining % > 50%) | B (B represents substrate protein remaining % > 50%) | A (A represents 0% ≤ substrate protein remaining % ≤ 50%) |
| O=C1CCC(N2C(=O)c3ccc(N4CC5CCC4CN5C(c4ccccc4)c4ccccc4)cc3C2=O)C(=O)N1 (centres unmarked) [GT-05976, 5-(5-benzhydryl-2,5-diazabicyclo[2.2.2]octan-2-yl)-2-(2,6-dioxopiperidin-3-yl) isoindoline-1,3-dione] | < 500 | B (B represents substrate protein remaining % > 50%) | B (B represents substrate protein remaining % > 50%) | A (A represents 0% ≤ substrate protein remaining % ≤ 50%) |
| O=C1CCC(N2Cc3cc(C(=O)N4CC5CCC(C4)N5C(c4ccccc4)c4ccccc4)ccc3C2=O)C(=O)N1 (centres unmarked) [GT-05980, 3-(5-(8-benzhydryl-3,8-diazabicyclo[3.2.1]octane-3-carbonyl)-1-oxoisoindolin-2-yl)piperidine-2,6-dione] | 500 to 1000 | A (A represents 0% ≤ substrate protein remaining % ≤ 50%) | B (B represents substrate protein remaining % > 50%) | A (A represents 0% ≤ substrate protein remaining % ≤ 50%) |
| O=C1CCC(N2Cc3cc(C(=O)N4CC5(CCN(C(c6ccccc6)c6ccccc6)CC5)C4)ccc3C2=O)C(=O)N1 (centres unmarked) [GT-05988, 3-(5-(7-benzhydryl-2,7-diazaspiro[3.5]nonane-2-carbonyl)-1-oxoisoindolin-2-yl)piperidine-2,6-dione] | < 500 | B (B represents substrate protein remaining % > 50%) | B (B represents substrate protein remaining % > 50%) | A (A represents 0% ≤ substrate protein remaining % ≤ 50%) |

Second part, led by results:

| IC50 [1] [nM] | SMILES | substrate protein remaining % IKZF1 (IKZF1) | substrate protein remaining % IKZF3 (IKZF3) | substrate protein remaining % GSPT1 (GSPT1) |
| --- | --- | --- | --- | --- |
| < 500 | O=C1CCC(N2Cc3cc(C(=O)N4CCC(N(c5ccccc5)c5ccccc5)CC4)ccc3C2=O)C(=O)N1 (centres unmarked) [GT-05926, 3-(5-(4-(diphenylamino)piperidine-1-carbonyl)-1-oxoisoindolin-2-yl)piperidine-2,6-dione] | B (B represents substrate protein remaining % > 50%) | B (B represents substrate protein remaining % > 50%) | A (A represents 0% ≤ substrate protein remaining % ≤ 50%) |
| < 500 | O=C1CCC(N2Cc3cc(C(=O)N4CCC(N(c5ccccc5)c5ccccc5)CC4)cc(F)c3C2=O)C(=O)N1 (centres unmarked) [GT-05927, 3-(5-(4-(diphenylamino)piperidine-1-carbonyl)-7-fluoro-1-oxoisoindolin-2-yl)piperidine-2,6-dione] | B (B represents substrate protein remaining % > 50%) | B (B represents substrate protein remaining % > 50%) | A (A represents 0% ≤ substrate protein remaining % ≤ 50%) |
| 500 to 1000 | O=C1CCC(N2Cc3c(C(=O)N4CCN(C(c5ccccc5)c5ccccn5)CC4)cccc3C2=O)C(=O)N1 (centres unmarked) [GT-05929, 3-(1-oxo-4-(4-(phenyl(pyridin-2-yl)methyl)piperazine-1-carbonyl)isoindolin-2-yl)piperidine-2,6-dione] | A (A represents 0% ≤ substrate protein remaining % ≤ 50%) | A (A represents 0% ≤ substrate protein remaining % ≤ 50%) | A (A represents 0% ≤ substrate protein remaining % ≤ 50%) |
| 500 to 1000 | CC1(C)CN(Cc2cc(F)c3c(c2)CN(C2CCC(=O)NC2=O)C3=O)CCN1C(c1ccccc1)c1ccccc1 (centres unmarked) [GT-05961, 3-(5-((4-benzhydryl-3,3-dimethylpiperazin-1-yl)methyl)-7-fluoro-1-oxoisoindolin-2-yl)piperidine-2,6-dione] | B (B represents substrate protein remaining % > 50%) | A (A represents 0% ≤ substrate protein remaining % ≤ 50%) | A (A represents 0% ≤ substrate protein remaining % ≤ 50%) |
| 1000 to 1900 | O=C1CCC(N2Cc3cc(CN4CCC5(CCN(C(c6ccccc6)c6ccccc6)CC5)C4)c(F)cc3C2=O)C(=O)N1 (centres unmarked) [GT-05971, 3-(5-((8-benzhydryl-2,8-diazaspiro[4.5]decan-2-yl)methyl)-6-fluoro-1-oxoisoindolin-2-yl)piperidine-2,6-dione] | B (B represents substrate protein remaining % > 50%) | B (B represents substrate protein remaining % > 50%) | A (A represents 0% ≤ substrate protein remaining % ≤ 50%) |
| 1000 to 1900 | O=C1CCC(N2Cc3c(CN4CCC5(CCN(C(c6ccccc6)c6ccccc6)CC5)C4)cccc3C2=O)C(=O)N1 (centres unmarked) [GT-05973, 3-(4-((8-benzhydryl-2,8-diazaspiro[4.5]decan-2-yl)methyl)-1-oxoisoindolin-2-yl)piperidine-2,6-dione] | B (B represents substrate protein remaining % > 50%) | A (A represents 0% ≤ substrate protein remaining % ≤ 50%) | A (A represents 0% ≤ substrate protein remaining % ≤ 50%) |
| < 500 | O=C1CCC(N2Cc3cc(C(=O)N4CCN(C5c6ccccc6-c6ccccc65)CC4)ccc3C2=O)C(=O)N1 (centres unmarked) [GT-05986, 3-(5-(4-(9H-fluoren-9-yl)piperazine-1-carbonyl)-1-oxoisoindolin-2-yl)piperidine-2,6-dione] | B (B represents substrate protein remaining % > 50%) | B (B represents substrate protein remaining % > 50%) | A (A represents 0% ≤ substrate protein remaining % ≤ 50%) |
